The source of these data is patent publication US20240366611A1, “METHODS OF TREATING A DISEASE OR DISORDER” (Ascentage Pharma (Suzhou) Co., Ltd., priority 2021, published 2024).

In the test the test system is H3K27me3 in TER119+ erythroid lineage cells. Kind of test: H3K27me3 level in TER119+ erythroid lineage cells from bone marrow (FACS, H3K27me3/H3 ratio). The test is classed as in vivo, CD-1 mice. As to the method:
Female CD-1 mice (8 weeks old) were housed and handled in a temperature-controlled environment with a 12-h light/12-h dark cycle. A total of 25 mice were assigned to 5 groups by randomization based on body weight, followed by 5 days of treatment with vehicle (po, qd), 3 mg/kg Cpd. 73 (po, qd), 10 mg/kg Cpd. 73 (po, qd), 30 mg/kg Cpd. 73 (po, qd), or 90 mg/kg Cpd. 73 (po, qd). The protocols and procedures involving the care and use of animals were approved by the Institutional Animal Care and Use Committee (IACUC) of WuXiAppTec (Shanghai) Co., Ltd. (Shanghai, China).
Mice were euthanatized 4 hours post the last dose. Whole blood and bone marrow were collected. Bone marrow cells were flushed from femur and tibia with IMDM+/+ (IMDM, 10% heat inactivated FBS, 100 U/mL penicillin and 100 μg/mL streptomycin). Aggregate was removed by passing through 40 μm cell strainer. 5 mL DPBS was used to pellet the cells after centrifugation, and the cell number was counted. Whole blood was added with 1×RBC lysis buffer remove RBC (whole blood: 1×RBC lysis buffer=1:9), and mononuclear cells were collected by centrifugation. The cells were then washed with 1×DPBS for once and resuspended in 3 ml DPBS after centrifugation followed by cell number counting.
Bone marrow cells were stained with FITC-conjugated anti-mouse TER-119 antibody (Thermo Fisher, 11-5921-82) and eFluor 506-conjugated anti-mouse CD45 antibody (Thermo Fisher, 69-0451-82). TER-119+ cells were erythroid lineage cells. PBMC were stained with eFlour 450-conjugated anti-mouse CD11b antibody (Invitrogen, 48-0112-82), PerCP-eFluor710-conjugated anti-mouse CD3 antibody (Invitrogen, 46-0032-82), eFluor 506-conjugated anti-mouse CD45 antibody (Thermo Fisher, 69-0451-82). CD45+CD3−CD11b+ cells were monocytes from PBMC.
After washing, centrifugation and fixation, the cells were permeabilized and further incubated with antibodies of H3K27m3 (Tri-Methyl-Histone H3 (Lys27) (C36B11) Rabbit mAb (PE Conjugate), CST, 40724S) and H3 (Histone H3 (D1H2) XP® Rabbit mAb (Alexa Fluor®647 Conjugate), CST, 12230S), followed by FACS analysis to quantify the mean fluorescence intensity of target cells. The ratio between the fluorescence intensity of H3K27me3 and H3 were used to reflect the level of H3K27me3 in the cells.

In the case of `CC(C)N1Cc2cc(C(F)(F)F)ncc2-c2cnc(NCc3c(F)ccc4c3CCO4)n3cnc(c23)C1=O` [Cpd. 73, 12-(((5-fluoro-2,3-dihydrobenzofuran-4-yl)methyl)amino)-4-isopropyl-7-(trifluoromethyl)-4,5-dihydro-3H-2,4,8,11,12a-pentaazabenzo[4,5]cycloocta[1,2,3-cd]inden-3-one], the “decrease in H3K27me3 level” value reads like this: (3 mg/kg po qd×5 days, vs vehicle) 21.2%; (10 mg/kg po qd×5 days, vs vehicle) 18.7%; (30 mg/kg po qd×5 days, vs vehicle) 21.6%; (90 mg/kg po qd×5 days, p<0.01 vs vehicle) 39.7%.
